Experimental data taken from patent US20260224714A1, “CYCLING LYSOSOMAL TARGETING ANTIBODY CONJUGATES” (Lycia Therapeutics, Inc., priority 2023, published 2026).

Assays:
Assay type in all cases: cell-based
HepG2 cells = assay: Externalization of conjugates from a cell following internalization (cycling), high-throughput format (Example 11); settings: 50 nM conjugate 1 hour, stringent washes, Alexa Fluor 647-labelled a-human IgG 1 hour, FACS, normalized to unconjugated parent protein, average of two replicate wells
Procedure, shortened: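 25,000 HepG2 cells incubated with conjugate for 1 h at indicated concentrations, then chilled and washed (DPBS, pH 5.2 acetate, pH 2.5 EBSS) to strip surface conjugate. Recycled conjugate captured by 1 μg/ml AF647 anti-human IgG in 37 °C EMEM for 1 h; median AF647 by flow cytometry, mean of two wells.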

human IgE = assay: Degradation of initial and subsequent dose of target in HepG2 cells (Example 12, Table 30); settings: normalized to unconjugated; for Normalized Fluorescence Post Wash Median Green: after wash, probe-conjugated IgE added for 4 hours, subsequent dose of target; for Normalized Fluorescence Precomplex Median Deep Red: precomplexed equimolar conjugate:IgE (cathepsin-cleavable quenched fluorescent probe) added for 2 hours, initial dose of target
Procedure, shortened: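 HepG2 cells exposed 2 h to conjugate precomplexed (30 min, 37 °C, equimolar) with 647-quenched-probe human IgE, acid/ice washed, then given 488-probe IgE without conjugate for 4 h. Median 647 (initial) and 488 (recycled) fluorescence by flow cytometry, normalised to unconjugated parent; mean of two wells.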

recombinant IgE = assay: Degradation of super-stoichiometric levels of target in HepG2 cells (Example 13, Table 31); settings: 1 nM conjugate and 25 nM IgE for three days, (A-B)/C IgE depleted relative to conjugate, average of two replicate wells
Procedure, shortened: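 HepG2 cells in EMEM/10% FBS were incubated with 1 nM conjugate plus 25 nM recombinant IgE for 72 h. IgE in medium at start and end quantified by MSD/ELISA-type assay; value is molar equivalents IgE depleted per conjugate, (initial − day-3 IgE)/conjugate concentration, mean of two wells.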

[1] = system: Alexa Fluor647 labelled human IgE; assay: Uptake assay: internalization of Alexa Fluor 647 labelled IgE in ASGPR1/2 KO HepG2 cells (Example 6); settings: equimolar conjugate and AF647 IgE, normalized to unconjugated parent protein
Procedure, shortened: (§1)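 HepG2 cells (wild type or ASGPR1/2 KO) pre-blocked with Fc receptor blocker, then exposed 2 h to conjugate precomplexed equimolar with AF647-labelled human IgE (30 min, room temperature) at 300 nM to 1.23 nM final. Median cellular AF647 by flow cytometry, normalized to unconjugated parent protein.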

[2] = system: LysoLight-labelled human IgE; assay: Lysosomal degradation of LysoLight-labelled IgE in HepG2 cells, live cell imaging (Example 7); settings: equimolar conjugate:LysoLight IgE, area under the curve of deep red fluorescence over three days, normalized to unconjugated parent protein
Procedure, shortened: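 Conjugate precomplexed 30 min at room temperature with equimolar LysoLight-labelled human IgE, added to Fc-receptor-blocked HepG2 cells at final 100–1.23 nM. Red fluorescence, released on lysosomal cathepsin cleavage, imaged hourly for 72 h starting 1 h post-addition; area under the fluorescence–time curve taken as total degradation.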

[3] = system: Alexa Fluor647 labelled human IgE; assay: Uptake assay: internalization of Alexa Fluor 647 labelled IgE in wild type HepG2 cells (Example 6); settings: equimolar conjugate and AF647 IgE, 2 hours, median cellular AF647 intensity by flow cytometry, normalized to unconjugated parent protein
Procedure, shortened: as §1

| SMILES | Normalized Fluorescence (HepG2 cells) | Normalized Fluorescence Post Wash Median Green (human IgE) | Normalized Fluorescence Precomplex Median Deep Red (human IgE) | Average Degradation (Molar equivalents) (recombinant IgE) | Normalized Fluorescence 100 nM ASGPR KO [1] | Normalized Fluorescence 3.7 nM [2] | Normalized Fluorescence 100 nM [2] | Normalized Fluorescence 3.7 nM WT [3] | Normalized Fluorescence 100 nM WT [3] |
| --- | --- | --- | --- | --- | --- | --- | --- | --- | --- |
| CC(CCCNC(=O)NCCOCCOCCOCC(F)(F)c1cncc(N[C@H]2CO[C@H](CO)[C@H](O)[C@@H]2O)n1)(CCCNC(=O)NCCOCCOCCOCC(F)(F)c1cncc(N[C@H]2CO[C@H](CO)[C@H](O)[C@@H]2O)n1)NC(=O)CCOCCOCCOCCNS(=O)(=O)c1ccc(N2C(=O)C=CC2=O)cc1 [Compound 2304] | 82.2 | 4.1 | 3.9 | 8.8 | 1.0 | 12.7 | 4.0 | 150.3 | 292.5 |
| CN1CCN(C[C@H]2OC[C@H](Nc3nc(OCCOCCOCCNC(=O)NCCCC(CCCNC(=O)NCCOCCOCCOc4cc(C(F)(F)F)nc(N[C@H]5CO[C@H](CN6CCN(C)CC6)[C@H](O)[C@@H]5O)n4)(CCCNC(=O)NCCOCCOCCOc4cc(C(F)(F)F)nc(N[C@H]5CO[C@H](CN6CCN(C)CC6)[C@H](O)[C@@H]5O)n4)NC(=O)CCOCCOCCOCCNS(=O)(=O)c4ccc(N5C(=O)C=CC5=O)cc4)cc(C(F)(F)F)n3)[C@@H](O)[C@H]2O)CC1 [Compound 2312] | 44.5 | 3.0 | 3.5 | 4.1 | 1.0 | 11.1 | 4.2 | 64.9 | 242.9 |
| CC(=O)N[C@@H]1[C@@H](O)[C@@H](O)[C@@H](CO)O[C@@H]1CCCCCOCCOCCNC(=O)NCCCOCC(COCCCNC(=O)NCCOCCOCCCCC[C@@H]1O[C@@H](CO)[C@@H](O)[C@@H](O)[C@@H]1NC(C)=O)(COCCCNC(=O)NCCOCCOCCCCC[C@H]1O[C@H](CO)[C@H](O)[C@H](O)[C@H]1NC(C)=O)NC(=O)CCOCCOCCOCCNC(=O)c1ccc(N2C(=O)C=CC2=O)cc1 (stereo partly drawn) [Compound 2317] | 48.8 | 3.7 | 3.6 | 4.0 | 1.1 | 15.2 | 4.2 | 76.2 | 255.2 |
| CC(=O)N[C@@H]1[C@@H](O)[C@@H](O)[C@@H](CO)O[C@@H]1c1cn(CCOCCOCCNC(=O)NCCCC(CCCNC(=O)NCCOCCOCCn2cc([C@H]3O[C@H](CO)[C@H](O)[C@H](O)[C@H]3NC(C)=O)nn2)(CCCNC(=O)NCCOCCOCCn2cc([C@H]3O[C@H](CO)[C@H](O)[C@H](O)[C@H]3NC(C)=O)nn2)NC(=O)CCOCCOCCOCCNS(=O)(=O)c2ccc(N3C(=O)C=CC3=O)cc2)nn1 [Compound 2329] | 40.3 | 3.0 | 3.3 | 4.7 | 1.1 | 11.6 | 3.0 | 56.3 | 201.8 |
| CC(=O)N[C@@H]1[C@@H](O)[C@@H](O)[C@@H](CO)O[C@@H]1CCCOCCOCCNC(=O)NCCCC(CCCNC(=O)NCCOCCOCCC[C@H]1O[C@H](CO)[C@H](O)[C@H](O)[C@H]1NC(C)=O)(CCCNC(=O)NCCOCCOCCC[C@H]1O[C@H](CO)[C@H](O)[C@H](O)[C@H]1NC(C)=O)NC(=O)NCCOCCOCCOCCNC(=O)CBr [Compound 2321] | 49.3 | 3.7 | 4.0 | 2.4 | 1.1 | 13.2 | 4.1 | 80.7 | 320.7 |
| CC(=O)N[C@@H]1[C@@H](O)[C@@H](O)[C@@H](CO)O[C@@H]1c1cc(COCCOCCNC(=O)NCCCC(CCCNC(=O)NCCOCCOCc2cc([C@H]3O[C@H](CO)[C@H](O)[C@H](O)[C@H]3NC(C)=O)on2)(CCCNC(=O)NCCOCCOCc2cc([C@H]3O[C@H](CO)[C@H](O)[C@H](O)[C@H]3NC(C)=O)on2)NC(=O)CCOCCOCCOCCNS(=O)(=O)c2ccc(N3C(=O)C=CC3=O)cc2)no1 [Compound 2325] | 54.2 | 3.6 | 3.9 | 6.9 | 1.2 | 15.8 | 3.5 | 87.8 | 270.0 |
| CC(=O)N[C@@H]1[C@@H](O)[C@@H](O)[C@@H](CO)O[C@@H]1CCCOCCOCCNC(=O)NCCCC(CCCNC(=O)NCCOCCOCCC[C@H]1O[C@H](CO)[C@H](O)[C@H](O)[C@H]1NC(C)=O)(CCCNC(=O)NCCOCCOCCC[C@H]1O[C@H](CO)[C@H](O)[C@H](O)[C@H]1NC(C)=O)NC(=O)NCCOCCOCCOCCN(C)C(=O)c1ccc(N2C(=O)C=CC2=O)cc1 [Compound 2322] | 46.8 | 3.3 | 3.5 | 5.2 | 1.2 | 7.8 | 3.5 | 68.5 | 214.4 |
| CC(=O)N[C@@H]1[C@@H](O)[C@@H](O)[C@@H](CO)O[C@@H]1CCCOCCOCCNC(=O)NCCCC(CCCNC(=O)NCCOCCOCCC[C@H]1O[C@H](CO)[C@H](O)[C@H](O)[C@H]1NC(C)=O)(CCCNC(=O)NCCOCCOCCC[C@H]1O[C@H](CO)[C@H](O)[C@H](O)[C@H]1NC(C)=O)NC(=O)NCOCCOCCOCCNS(=O)(=O)c1ccc(N2C(=O)C=CC2=O)cc1 [Compound 2313] | 36.4 | 3.2 | 3.5 | 7.5 | 1.0 | 13.0 | 4.1 | 89.1 | 259.1 |
| CC(=O)N[C@@H]1[C@@H](O)[C@@H](O)[C@@H](CO)O[C@@H]1CCCOCCOCCNC(=O)NCCCC(CCCNC(=O)NCCOCCOCCC[C@H]1O[C@H](CO)[C@H](O)[C@H](O)[C@H]1NC(C)=O)(CCCNC(=O)NCCOCCOCCC[C@H]1O[C@H](CO)[C@H](O)[C@H](O)[C@H]1NC(C)=O)NC(=O)CBr [Compound 2308] | 31.6 | 2.8 | 3.3 | 2.5 | 1.1 | 6.7 | 2.3 | 55.1 | 261.4 |
